Here are results for 13 molecules from ChEMBL document CHEMBL5442175, “EUbOPEN Chemogenomics Library - PDSP Secondary Binding” (2024).

pKi: −log10 of the molar value. Counter-ions that a name gives are not always drawn.

The target of test [1] is Sodium-dependent noradrenaline transporter (Homo sapiens, UniProt P23975). The test can be described thus: PDSP Secondary Binding target: SLC6A2 - Compounds are tested at 10 uM concentration, plate are incubated at room temperature in the dark for 90 minutes. Reaction are stopped by vacuum filtration onto 0.3% polyethyleneimine soaked filter mats using Filtermate harvester. Scintillation cocktail is then melted onto microwave-dried filters on a hot plate and the radio activity is counted in Microbia counter.
Sodium-dependent noradrenaline transporter, sequence (P23975 whole entry): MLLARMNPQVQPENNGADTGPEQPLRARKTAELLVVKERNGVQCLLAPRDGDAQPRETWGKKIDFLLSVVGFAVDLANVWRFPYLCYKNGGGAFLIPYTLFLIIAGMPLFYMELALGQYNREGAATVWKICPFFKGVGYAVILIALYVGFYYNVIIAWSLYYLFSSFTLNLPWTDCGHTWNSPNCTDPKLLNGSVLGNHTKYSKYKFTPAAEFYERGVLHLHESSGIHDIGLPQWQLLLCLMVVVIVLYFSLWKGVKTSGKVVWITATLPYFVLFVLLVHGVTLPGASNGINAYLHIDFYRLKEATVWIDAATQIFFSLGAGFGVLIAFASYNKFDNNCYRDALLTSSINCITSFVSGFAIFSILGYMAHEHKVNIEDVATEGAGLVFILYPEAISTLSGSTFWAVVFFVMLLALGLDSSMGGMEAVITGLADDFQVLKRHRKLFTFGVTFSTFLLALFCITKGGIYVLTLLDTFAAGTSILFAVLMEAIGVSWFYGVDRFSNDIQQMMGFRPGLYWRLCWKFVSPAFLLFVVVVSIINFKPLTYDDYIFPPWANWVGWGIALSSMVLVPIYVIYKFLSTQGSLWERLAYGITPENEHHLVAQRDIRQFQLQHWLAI

Test [2] deals with Sigma intracellular receptor 2 (Homo sapiens, UniProt Q5BJF2). The test can be described thus: PDSP Secondary Binding target: TMEM97 - Compounds are tested at 10 uM concentration, plate are incubated at room temperature in the dark for 90 minutes. Reaction are stopped by vacuum filtration onto 0.3% polyethyleneimine soaked filter mats using Filtermate harvester. Scintillation cocktail is then melted onto microwave-dried filters on a hot plate and the radio activity is counted in Microbia counter.
Sigma intracellular receptor 2, sequence (Q5BJF2 whole entry): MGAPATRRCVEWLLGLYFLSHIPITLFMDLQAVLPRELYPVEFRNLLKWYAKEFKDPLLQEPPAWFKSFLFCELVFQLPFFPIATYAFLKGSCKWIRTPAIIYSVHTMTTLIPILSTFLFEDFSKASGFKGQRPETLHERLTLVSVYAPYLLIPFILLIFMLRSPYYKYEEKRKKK

In test [3] the target is Sigma non-opioid intracellular receptor 1 (Homo sapiens, UniProt Q99720). Description: PDSP Secondary Binding target: SIGMAR1 - Compounds are tested at 10 uM concentration, plate are incubated at room temperature in the dark for 90 minutes. Reaction are stopped by vacuum filtration onto 0.3% polyethyleneimine soaked filter mats using Filtermate harvester. Scintillation cocktail is then melted onto microwave-dried filters on a hot plate and the radio activity is counted in Microbia counter.
Sigma non-opioid intracellular receptor 1, sequence (Q99720 whole entry): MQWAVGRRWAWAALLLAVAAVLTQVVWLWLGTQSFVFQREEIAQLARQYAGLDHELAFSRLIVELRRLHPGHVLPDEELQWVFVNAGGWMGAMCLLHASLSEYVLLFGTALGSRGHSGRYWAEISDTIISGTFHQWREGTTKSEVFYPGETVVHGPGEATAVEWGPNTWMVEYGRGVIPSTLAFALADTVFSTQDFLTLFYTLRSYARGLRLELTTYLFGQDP

A further test has as its target Mu-type opioid receptor (Homo sapiens, UniProt P35372). The test can be described thus: PDSP Secondary Binding target: OPRM1 - Compounds are tested at 10 uM concentration, plate are incubated at room temperature in the dark for 90 minutes. Reaction are stopped by vacuum filtration onto 0.3% polyethyleneimine soaked filter mats using Filtermate harvester. Scintillation cocktail is then melted onto microwave-dried filters on a hot plate and the radio activity is counted in Microbia counter.

Test [4] deals with 5-hydroxytryptamine receptor 2B (Homo sapiens, UniProt P41595). Description: PDSP Secondary Binding target: HTR2B - Compounds are tested at 10 uM concentration, plate are incubated at room temperature in the dark for 90 minutes. Reaction are stopped by vacuum filtration onto 0.3% polyethyleneimine soaked filter mats using Filtermate harvester. Scintillation cocktail is then melted onto microwave-dried filters on a hot plate and the radio activity is counted in Microbia counter.
5-hydroxytryptamine receptor 2B, sequence (P41595 whole entry): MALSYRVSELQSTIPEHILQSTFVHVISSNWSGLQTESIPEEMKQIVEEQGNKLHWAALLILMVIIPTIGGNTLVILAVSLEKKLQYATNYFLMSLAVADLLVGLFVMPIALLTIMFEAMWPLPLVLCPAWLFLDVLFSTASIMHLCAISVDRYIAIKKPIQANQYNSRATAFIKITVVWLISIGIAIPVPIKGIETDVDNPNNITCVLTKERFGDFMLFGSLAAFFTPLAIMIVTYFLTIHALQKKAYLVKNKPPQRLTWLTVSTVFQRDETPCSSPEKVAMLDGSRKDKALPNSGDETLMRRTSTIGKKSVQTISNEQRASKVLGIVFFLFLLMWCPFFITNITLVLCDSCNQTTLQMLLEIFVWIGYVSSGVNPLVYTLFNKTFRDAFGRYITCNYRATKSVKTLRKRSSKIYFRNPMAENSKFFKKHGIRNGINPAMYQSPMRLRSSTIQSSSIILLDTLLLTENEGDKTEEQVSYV

Test [5] deals with T1, Alpha-1B adrenergic receptor (Homo sapiens, UniProt P35368).
T1 sequence (P35368 whole entry): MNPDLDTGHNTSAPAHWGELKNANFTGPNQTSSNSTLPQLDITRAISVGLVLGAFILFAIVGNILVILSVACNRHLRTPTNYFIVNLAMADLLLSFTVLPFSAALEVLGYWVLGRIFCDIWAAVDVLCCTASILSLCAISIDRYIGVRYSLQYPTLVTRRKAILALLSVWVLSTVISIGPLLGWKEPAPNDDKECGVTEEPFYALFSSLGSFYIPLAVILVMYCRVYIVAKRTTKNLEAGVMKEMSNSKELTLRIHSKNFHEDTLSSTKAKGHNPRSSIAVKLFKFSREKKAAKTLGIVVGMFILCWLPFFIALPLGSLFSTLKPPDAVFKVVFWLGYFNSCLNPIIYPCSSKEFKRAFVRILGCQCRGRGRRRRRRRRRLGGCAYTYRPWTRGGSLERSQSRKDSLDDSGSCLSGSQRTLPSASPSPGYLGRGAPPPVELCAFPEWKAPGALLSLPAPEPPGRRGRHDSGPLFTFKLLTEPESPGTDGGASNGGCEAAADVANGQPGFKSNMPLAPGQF
Description: PDSP Secondary Binding target: ADRA1B - Compounds are tested at 10 uM concentration, plate are incubated at room temperature in the dark for 90 minutes. Reaction are stopped by vacuum filtration onto 0.3% polyethyleneimine soaked filter mats using Filtermate harvester. Scintillation cocktail is then melted onto microwave-dried filters on a hot plate and the radio activity is counted in Microbia counter.

The target in another test is D(3) dopamine receptor (Homo sapiens, UniProt P35462). The test can be described thus: PDSP Secondary Binding target: DRD3 - Compounds are tested at 10 uM concentration, plate are incubated at room temperature in the dark for 90 minutes. Reaction are stopped by vacuum filtration onto 0.3% polyethyleneimine soaked filter mats using Filtermate harvester. Scintillation cocktail is then melted onto microwave-dried filters on a hot plate and the radio activity is counted in Microbia counter.
D(3) dopamine receptor, sequence (P35462 whole entry): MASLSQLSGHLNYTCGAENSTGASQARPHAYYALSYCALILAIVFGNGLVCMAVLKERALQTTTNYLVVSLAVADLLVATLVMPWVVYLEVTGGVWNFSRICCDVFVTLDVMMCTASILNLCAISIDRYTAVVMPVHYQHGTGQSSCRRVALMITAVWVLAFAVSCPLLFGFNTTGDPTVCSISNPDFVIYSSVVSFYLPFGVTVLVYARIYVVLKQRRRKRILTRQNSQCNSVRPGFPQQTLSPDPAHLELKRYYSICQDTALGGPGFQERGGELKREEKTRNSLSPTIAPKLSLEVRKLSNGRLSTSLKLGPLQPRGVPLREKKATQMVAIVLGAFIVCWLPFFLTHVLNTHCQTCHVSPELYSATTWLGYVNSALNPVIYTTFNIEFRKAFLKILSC

A further test deals with Histamine H1 receptor (Homo sapiens, UniProt P35367). Description: PDSP Secondary Binding target: HRH1 - Compounds are tested at 10 uM concentration, plate are incubated at room temperature in the dark for 90 minutes. Reaction are stopped by vacuum filtration onto 0.3% polyethyleneimine soaked filter mats using Filtermate harvester. Scintillation cocktail is then melted onto microwave-dried filters on a hot plate and the radio activity is counted in Microbia counter.
Histamine H1 receptor, sequence (P35367 whole entry): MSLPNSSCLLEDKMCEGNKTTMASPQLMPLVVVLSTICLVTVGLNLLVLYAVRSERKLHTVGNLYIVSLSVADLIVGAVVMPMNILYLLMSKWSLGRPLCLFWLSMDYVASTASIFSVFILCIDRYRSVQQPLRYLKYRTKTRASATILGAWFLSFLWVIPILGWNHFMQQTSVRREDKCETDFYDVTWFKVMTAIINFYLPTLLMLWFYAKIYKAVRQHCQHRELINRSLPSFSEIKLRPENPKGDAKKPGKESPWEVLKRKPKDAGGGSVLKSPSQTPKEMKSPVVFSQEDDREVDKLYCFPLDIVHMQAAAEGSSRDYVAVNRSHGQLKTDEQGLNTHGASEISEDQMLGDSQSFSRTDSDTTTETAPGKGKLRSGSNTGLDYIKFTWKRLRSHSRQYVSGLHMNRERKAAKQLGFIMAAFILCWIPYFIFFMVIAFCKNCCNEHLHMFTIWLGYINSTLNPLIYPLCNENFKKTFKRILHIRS

Test [6] deals with 5-hydroxytryptamine receptor 6 (Homo sapiens, UniProt P50406). Description: PDSP Secondary Binding target: HTR6 - Compounds are tested at 10 uM concentration, plate are incubated at room temperature in the dark for 90 minutes. Reaction are stopped by vacuum filtration onto 0.3% polyethyleneimine soaked filter mats using Filtermate harvester. Scintillation cocktail is then melted onto microwave-dried filters on a hot plate and the radio activity is counted in Microbia counter.
5-hydroxytryptamine receptor 6, sequence (P50406 whole entry): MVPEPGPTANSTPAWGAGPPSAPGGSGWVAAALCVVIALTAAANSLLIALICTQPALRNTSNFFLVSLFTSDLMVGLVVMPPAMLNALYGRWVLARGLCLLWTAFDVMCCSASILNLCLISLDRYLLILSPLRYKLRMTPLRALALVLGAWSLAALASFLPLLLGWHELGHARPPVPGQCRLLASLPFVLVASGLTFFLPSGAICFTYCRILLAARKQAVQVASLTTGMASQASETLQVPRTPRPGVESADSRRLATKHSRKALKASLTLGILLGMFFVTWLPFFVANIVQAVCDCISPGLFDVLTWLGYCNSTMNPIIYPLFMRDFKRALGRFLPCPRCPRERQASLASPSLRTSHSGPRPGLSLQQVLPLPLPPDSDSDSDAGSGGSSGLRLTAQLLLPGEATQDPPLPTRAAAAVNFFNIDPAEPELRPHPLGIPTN

The target of test [7] is 5-hydroxytryptamine receptor 5A (Homo sapiens, UniProt P47898). Description: PDSP Secondary Binding target: HTR5A - Compounds are tested at 10 uM concentration, plate are incubated at room temperature in the dark for 90 minutes. Reaction are stopped by vacuum filtration onto 0.3% polyethyleneimine soaked filter mats using Filtermate harvester. Scintillation cocktail is then melted onto microwave-dried filters on a hot plate and the radio activity is counted in Microbia counter.
5-hydroxytryptamine receptor 5A, sequence (P47898 whole entry): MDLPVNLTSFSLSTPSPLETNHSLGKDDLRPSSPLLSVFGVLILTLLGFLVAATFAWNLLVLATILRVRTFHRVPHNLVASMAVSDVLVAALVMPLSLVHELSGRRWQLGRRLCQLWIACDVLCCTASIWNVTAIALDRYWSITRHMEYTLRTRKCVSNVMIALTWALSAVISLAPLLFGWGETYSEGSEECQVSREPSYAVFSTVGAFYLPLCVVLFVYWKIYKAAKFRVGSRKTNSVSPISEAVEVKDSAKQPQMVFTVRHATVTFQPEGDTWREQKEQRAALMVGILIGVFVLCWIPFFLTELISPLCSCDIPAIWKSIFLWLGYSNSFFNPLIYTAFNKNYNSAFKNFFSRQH

The target in test [8] is T2, Alpha-2B adrenergic receptor (Homo sapiens, UniProt P18089).
T2 sequence (P18089 whole entry): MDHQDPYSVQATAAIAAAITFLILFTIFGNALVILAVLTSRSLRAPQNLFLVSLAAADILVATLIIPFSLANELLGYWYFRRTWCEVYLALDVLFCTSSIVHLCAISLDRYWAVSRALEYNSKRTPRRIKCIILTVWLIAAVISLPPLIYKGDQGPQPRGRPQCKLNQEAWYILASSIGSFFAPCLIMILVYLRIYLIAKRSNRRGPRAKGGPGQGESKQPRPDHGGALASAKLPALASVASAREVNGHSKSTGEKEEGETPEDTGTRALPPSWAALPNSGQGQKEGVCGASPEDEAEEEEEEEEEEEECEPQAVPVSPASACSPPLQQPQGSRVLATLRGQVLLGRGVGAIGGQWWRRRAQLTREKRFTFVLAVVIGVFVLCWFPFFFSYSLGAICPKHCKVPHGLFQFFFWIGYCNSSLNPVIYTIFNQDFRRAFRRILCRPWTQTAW
Description: PDSP Secondary Binding target: ADRA2B - Compounds are tested at 10 uM concentration, plate are incubated at room temperature in the dark for 90 minutes. Reaction are stopped by vacuum filtration onto 0.3% polyethyleneimine soaked filter mats using Filtermate harvester. Scintillation cocktail is then melted onto microwave-dried filters on a hot plate and the radio activity is counted in Microbia counter.

Mu-type opioid receptor, sequence (P35372 whole entry): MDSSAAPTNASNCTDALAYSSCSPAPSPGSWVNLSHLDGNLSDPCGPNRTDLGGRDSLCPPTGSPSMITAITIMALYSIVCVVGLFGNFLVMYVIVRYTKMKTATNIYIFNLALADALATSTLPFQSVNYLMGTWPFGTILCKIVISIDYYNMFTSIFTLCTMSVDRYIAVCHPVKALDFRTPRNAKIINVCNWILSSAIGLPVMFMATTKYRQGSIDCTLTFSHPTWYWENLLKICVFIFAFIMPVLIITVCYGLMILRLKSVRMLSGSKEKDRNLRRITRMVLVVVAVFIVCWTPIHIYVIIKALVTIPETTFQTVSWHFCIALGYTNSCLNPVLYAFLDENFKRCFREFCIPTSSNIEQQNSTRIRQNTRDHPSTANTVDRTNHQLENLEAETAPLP

Broadly, the pKi is the Ki on a negative log10 scale, so that one unit is a factor of ten. Read a high pKi as a small Ki. In the case of `N#Cc1ccc2[nH]cc(CCCCN3CCN(c4ccc5oc(C(N)=O)cc5c4)CC3)c2c1` [VILAZODONE HYDROCHLORIDE], the pKi in test [1] was 7.81; in [2], 5.96; in test [3] it was 7.85; at Mu-type opioid receptor, 6.14; in [4], 7.19; in test [5] it was 5.54. The pKi on D(3) dopamine receptor was 6.88; on Histamine H1 receptor it was 6.44; in test [6], 6.02.
Turning to `CCCCCNC(=N)N/N=C/c1c[nH]c2ccc(OC)cc12` [TEGASEROD MALEATE], the pKi is 6.70 in test [7]; 7.24 in [2]; 6.75 in [3]; 5.55 on Mu-type opioid receptor; 7.81 in test [4]; 5.58 in [5]. Further, the results for the pKi (in [8]; at D(3) dopamine receptor; in test [6]) were 5.55, 6.37 and 6.25, respectively.
For the molecule `COC(=O)C1=C(C)NC(C)=C(C(=O)OCCCN2CCC(c3ccccc3)(c3ccccc3)CC2)[C@H]1c1cccc([N+](=O)[O-])c1` [NIGULDIPINE], the pKi in test [7] is 6.37; in test [1] it was 6.07; in test [2], 6.48; in test [3], 6.49; on Mu-type opioid receptor it was 6.89; at D(3) dopamine receptor, 6.37. Further, the pKi was 7.05 at Histamine H1 receptor and 6.06 in test [6].
On to `O=c1ccc2ccc(OCCCCN3CCN(c4cccc5sccc45)CC3)cc2[nH]1` [BREXPIPRAZOLE], for which the pKi in [7] was 6.75; in test [1] it was 6.16; in [2], 7.20; in test [5] it was 7.24; in test [8], 6.72; at D(3) dopamine receptor, 7.98. Further, the pKi on Histamine H1 receptor is 8.05; in test [6], 6.51.
Regarding `O=S1(=O)c2cccc3cccc(c23)N1CCCN1CCN(c2ccc(F)cc2)CC1` [FANANSERIN], the pKi in test [7] is 5.17; in test [1], below 5.00; in test [2], 5.88; in test [3], 6.16; in test [5], 6.07; in test [8], 6.18. For the same molecule, the negative logarithm of the Ki (pKi) on D(3) dopamine receptor was 5.99; on Histamine H1 receptor it was 7.51; in test [6], 5.29.
As to `CN(C)C(=O)N[C@H]1CC[C@H](CCN2CCN(c3cccc(Cl)c3Cl)CC2)CC1` [CARIPRAZINE HYDROCHLORIDE], the pKi in test [7] was 5.48; in [2] it was 6.31; in [5] it was 5.71; in test [8], 5.96; in test [6] it was 5.89.
Turning to `Cc1nc2sccn2c(=O)c1CCN1CCC(=C(c2ccc(F)cc2)c2ccc(F)cc2)CC1` [RITANSERIN], the pKi in [7] is 6.99; in test [1] it was 6.16; in test [2], 6.47; in [3] it was 6.37; at Mu-type opioid receptor it was 6.46; in [5] it was 6.22. For the same molecule, the pKi was 6.18 in test [8], 7.45 on D(3) dopamine receptor, 7.91 on Histamine H1 receptor and 6.54 in [6].
Regarding `Cc1ccc2c(c1)c1c(n2CCc2ccc(C)nc2)CCN(C)C1` [LATREPIRDINE], the pKi in [7] was 6.97; in [3], 5.88; in test [4], 6.22; in [5], 5.88; in [8], 7.34; on D(3) dopamine receptor it was 6.34. The molecule further showed a pKi in [6] of 6.84.
For `CN1CCCC(n2nc(Cc3ccc(Cl)cc3)c3ccccc3c2=O)CC1` (configuration not stated) [AZELASTINE HYDROCHLORIDE], the negative-log Ki (pKi) was 7.50 in test [2]; 6.82 in test [3]; 5.44 in test [5]; 6.64 in test [8]; 6.20 on D(3) dopamine receptor; 5.68 in test [6].
Consider `COc1cccc([C@@H](C)NCCCc2ccccc2Cl)c1` [TECALCET HYDROCHLORIDE], for which the pKi in test [7] was 5.96; in [1], 5.72; in [2], 7.13; in test [3], 7.38; on Mu-type opioid receptor, 5.66; in [4], 7.37. For the same molecule, the pKi in [8] was 6.02; at D(3) dopamine receptor, 6.06; at Histamine H1 receptor it was 6.04; in [6] it was 5.64.
For `S=C(NCCCc1c[nH]cn1)NCCCN(Cc1ccc(Cl)c(Cl)c1)c1ccc(Br)cn1`, the negative logarithm of the Ki (pKi) in [7] is 5.81; in [1] it was 6.21; in test [2], 6.81; in test [5], 5.69; in test [8] it was 6.29; on D(3) dopamine receptor, 6.19. In addition, the figures for the pKi (at Histamine H1 receptor; in [6]) were 6.19 and 5.88, respectively.
For `CN1CCN(c2ccc(Nc3c4ccccc4nc4ccccc34)cc2)CC1`, the pKi in [1] is 6.92; in [2], 6.03; in [3] it was 6.38; in test [5], 5.57; on Histamine H1 receptor, 6.39; in [6], 6.42.
Take `CCc1nn(CCCN2CCN(c3cccc(Cl)c3)CC2)c(=O)n1CCOc1ccccc1` [NEFAZODONE HYDROCHLORIDE]: the pKi was 5.96 in test [7]; 6.65 in [2]; 6.24 in test [5]; 6.72 in [8]; 6.42 at D(3) dopamine receptor; 6.90 at Histamine H1 receptor. Besides, the negative logarithm of the Ki (pKi) in [6] was 5.95.
